Test results: patent US8431564B2 (Merck Sharp & Dohme B.V., priority 2009, dated 2013)

Each molecule was assayed against T1, human FSH receptor (Homo sapiens, UniProt P23945) (assay: Agonistic activity at the human FSH receptor expressed in CHO cells (CRE-luciferase reporter)). Conditions: CHO cells stably transfected with human FSH receptor and CRE/luciferase reporter; 4 hours incubation; pEC50 is -log EC50.
T1 construct: expressed in transfected cells; host or cells: CHO (Chinese Hamster Ovary) cells, stably transfected, cotransfected with CRE-luciferase reporter
T1 sequence (P23945 18-695): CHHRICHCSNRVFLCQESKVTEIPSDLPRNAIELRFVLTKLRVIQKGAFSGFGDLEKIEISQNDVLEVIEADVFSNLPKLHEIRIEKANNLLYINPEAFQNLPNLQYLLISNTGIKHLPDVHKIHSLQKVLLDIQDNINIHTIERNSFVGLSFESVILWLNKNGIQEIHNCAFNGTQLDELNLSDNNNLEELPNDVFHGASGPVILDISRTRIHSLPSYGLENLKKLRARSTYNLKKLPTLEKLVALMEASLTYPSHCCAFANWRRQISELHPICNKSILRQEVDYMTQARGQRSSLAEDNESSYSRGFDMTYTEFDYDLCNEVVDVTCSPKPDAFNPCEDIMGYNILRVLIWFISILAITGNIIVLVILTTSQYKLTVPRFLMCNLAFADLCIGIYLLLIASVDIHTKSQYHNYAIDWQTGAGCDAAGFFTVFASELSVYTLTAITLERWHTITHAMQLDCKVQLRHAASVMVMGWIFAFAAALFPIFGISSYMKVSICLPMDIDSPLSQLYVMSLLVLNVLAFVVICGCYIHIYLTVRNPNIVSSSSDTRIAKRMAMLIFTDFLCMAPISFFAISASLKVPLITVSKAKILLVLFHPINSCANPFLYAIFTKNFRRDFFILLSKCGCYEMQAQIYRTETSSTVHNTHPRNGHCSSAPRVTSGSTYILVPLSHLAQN
Format: cell-based
Source text: The term EC50 means the concentration of the test compound that elicits half-maximal (50%) stimulation compared to the compound's maximally attainable effect. pEC50 is the negative log of EC50. The values can be determined e.g. in a cell line transfected with a FSH receptor gene and cotransfected with a cAMP responsive element/promoter directing the expression of a reporter gene. For the determination a software program such as MathIQ (version 2.0, ID Business Solutions Limited) can be used.
Agonistic activity of the compounds at the human FSH receptor was determined in Chinese Hamster Ovary (CHO) cells stably transfected with the human FSH receptor and cotransfected with a cAMP responsive element (CRE)/promotor directing the expression of a firefly luciferase reporter gene. Binding of the compounds to the Gs protein-coupled FSH receptor will result in an increase of cAMP, which in turn will induce an increased transactivation of the luciferase reporter. Cells (7,500 cells/well of a 384 well plate) were incubated in Dulbecco' minimal essential F12 modified medium (Invitrogen), supplemented with 1 μg/ml bovine insulin, 5 μg/ml human apo-transferrin, 80 U/ml penicillin G and 80 μg/ml streptomycin with the test compounds (concentration between 0.0316 nM and 10.0 μM) in duplicate in a humidified atmosphere (95%) at 5-7% CO2 and 37° C. The final concentration of DMSO was 1%. After 4 hours of incubation, plates were allowed to adjust to room temperature for 1 hour. Then, Luclite (PerkinElmer) solution was added to the wells and cells were allowed to lyse for at least 1 hour at room temperature. Subsequently, luciferase activity was measured in a luminescence counter. The signal is expressed as counts per second (cps). The EC50 (concentration of the test compound that elicits half-maximal (50%) luciferase stimulation compared to the compound's maximally attainable effect) and efficacy values (maximal effect of the test compound as percentage of the maximal effect of recombinant human FSH) of the compounds were determined using the software program MathIQ (version 2.0, ID Business Solutions Limited). pEC50 data (pEC50 is −log EC50) are indicated at the synthesis examples.

SMILES	hFSHRago (CHO luc) pEC50
COc1cc2c(cc1-c1ccn(C)n1)-c1c(-c3cccs3)c3c(n1CC2)C(=O)N(C(C)(C)C)CCC3 [Compound 4h]	7.19
CC(C)(C)N1CCCc2c(-c3cccs3)c3n(c2C1=O)CCc1ccc(-c2cnccn2)cc1-3 [Compound 4i]	7.86

Same assay, conditions: CHO cells stably transfected with human FSH receptor and CRE/luciferase reporter; 4 hours incubation; pEC50 is -log EC50; read-out: hFSHRago (CHO luc) pEC50 (converted)

SMILES	EC50 [nM]
COc1cc2c(cc1-c1ncco1)-c1c(-c3cccs3)c3c(n1CC2)C(=O)N(C(C)(C)C)CCC3 [Compound 4f, 9-tert-butyl-2-(oxazol-2-yl)-3-methoxy-13-(2-thienyl)-5,6,9,10,11,12-hexahydro-8H-azepino[4′,3′:4,5]pyrrolo[2,1-a]isoquinolin-8-one]	11.5
COc1cc2c(cc1-c1cncs1)-c1c(-c3cncs3)c3c(n1CC2)C(=O)N(C(C)(C)C)CCOC3 [Compound 11l, 9-tert-butyl-3-methoxy-2,14-di-1,3-thiazol-5-yl-5,6,10,11-tetrahydro-9H-[1,4]oxazocino[7′,6′:4,5]pyrrolo[2,1-a]isoquinolin-8(13H)-one]	12.6
COc1cc2c(cc1Br)-c1c(-c3cncs3)c3c(n1CC2)C(=O)N(C(C)(C)C)CCCC3 [Compound 17i, 9-tert-butyl-3-methoxy-2-bromo-14-(1,3-thiazol-5-yl)-5,6,10,11,12,13-hexahydroazocino[4′,3′:4,5]pyrrolo[2,1-a]isoquinolin-8(9H)-one]	4.68
COc1cc2c(cc1F)-c1c(-c3cccs3)c3c(n1CC2)C(=O)N(C(C)(C)C)CCCC3 [Compound 27c, 9-tert-butyl-2-fluoro-3-methoxy-14-(thiophen-2-yl)-5,6,10,11,12,13-hexahydroazocino[4′,3′:4,5]pyrrolo[2,1-a]isoquinolin-8(9H)-one]	30.2
COc1cc2c(cc1-c1cccnc1)-c1c(Br)c3c(n1CC2)C(=O)N(C(C)(C)C)CCC3 [Compound 13d, 9-tert-butyl-2-pyridin-3-yl-13-bromo-3-methoxy-5,6,9,10,11,12-hexahydro-8H-azepino[4′,3′:4,5]pyrrolo[2,1-a]isoquinolin-8-one]	380
COc1cc2c(cc1C(=O)N1CCOCC1)-c1c(-c3cccs3)c3c(n1CC2)C(=O)N(C(C)(C)C)CCCC3 [Compound 26c4, 9-tert-butyl-3-methoxy-2-(4-morpholinylcarbonyl)-14-(thiophen-2-yl)-5,6,10,11,12,13-hexahydroazocino[4′,3′:4,5]pyrrolo[2,1-a]isoquinolin-8(9H)-one]	9.77
COc1cc2c(cc1-c1cccnc1)-c1c(-c3cccs3)c3c(n1CC2)C(=O)N(C(C)(C)C)CCCOC3 [Compound 7l, 9-tert-butyl-3-methoxy-2-pyridin-3-yl-15-(2-thienyl)-5,6,9,10,11,12-hexahydro[1,5]oxazonino[8′,7′:4,5]pyrrolo[2,1-a]isoquinolin-8(14H)-one]	2.82
CCS(=O)(=O)c1cc2c(cc1OC)CCn1c3c(c(Br)c1-2)CCCCN(C(C)(C)C)C3=O [Compound 23e, 9-tert-butyl-14-bromo-2-ethylsulfonyl-3-methoxy-5,6,10,11,12,13-hexahydroazocino[4′,3′:4,5]pyrrolo[2,1-a]isoquinolin-8(9H)-one]	155
COc1cc2c(cc1-n1cc(C[C@@H](O)CO)nn1)-c1c(-c3cccs3)c3c(n1CC2)C(=O)N(C(C)(C)C)CCCC3 [Compound 20g, (R)-9-tert-butyl-14-(thien-2-yl)-2-(4-(2,3-dihydroxypropyl)-1H-1,2,3-triazol-1-yl)-3-methoxy-5,6,10,11,12,13-hexahydroazocino[4′,3′:4,5]pyrrolo[2,1-a]isoquinolin-8(9H)-one]	3.24
COc1cc2c(cc1-c1cccnc1)-c1c(-c3cccs3)c3c(n1CC2)C(=O)N(C(C)C)CCN(C(=O)C(C)C)C3 [Compound 10w, 9-isopropyl-3-methoxy-12-isobutyryl-14-(2-thienyl)-2-pyridin-3-yl-5,6,10,11,12,13-hexahydro[1,4]diazocino[6′,7′:4,5]pyrrolo[2,1-a]isoquinolin-8(9H)-one]	759
C=CCCNC(=O)c1cc2c(cc1OC)CCn1c3c(c(-c4cccs4)c1-2)CCCCN(C(C)(C)C)C3=O [Compound 26c9, 9-tert-butyl-2-(4-butenylaminocarbonyl)-3-methoxy-14-(thiophen-2-yl)-5,6,10,11,12,13-hexahydroazocino[4′,3′:4,5]pyrrolo[2,1-a]isoquinolin-8(9H)-one]	0.468
COc1cc2c(cc1-n1cc(CCO)nn1)-c1c(-c3cccs3)c3c(n1CC2)C(=O)N(C(C)(C)C)CCCC3 [Compound 20d, 9-tert-butyl-14-(thien-2-yl)-2-(4-(2-hydroxyethyl)-1H-1,2,3-triazol-1-yl)-3-methoxy-5,6,10,11,12,13-hexahydroazocino[4′,3′:4,5]pyrrolo[2,1-a]isoquinolin-8(9H)-one]	0.589
COc1cc2c(cc1[N+](=O)[O-])-c1c(-c3cccs3)c3c(n1CC2)C(=O)N(C(C)(C)C)CCC3 [Compound 2h, 9-tert-butyl-2-nitro-3-methoxy-13-(2-thienyl)-5,6,9,10,11,12-hexahydro-8H-azepino[4′,3′:4,5]pyrrolo[2,1-a]isoquinolin-8-one]	34.7
CCn1nnc(-c2cc3c(cc2OC)CCn2c4c(c(-c5cccs5)c2-3)CCCN(C(C)(C)C)C4=O)n1 [Compound 3e, 9-tert-butyl-2-(2-ethyl-2H-tetrazol-5-yl)-3-methoxy-13-(2-thienyl)-5,6,9,10,11,12-hexahydro-8H-azepino[4′,3′:4,5]pyrrolo[2,1-a]isoquinolin-8-one]	36.3
COc1cc2c(cc1OC(C)C)-c1c(-c3cccs3)c3c(n1CC2)C(=O)N(C(C)(C)C)CCC3 [Compound 6e]	11
COc1cc2c(cc1-c1cccnc1)-c1c(-c3cncs3)c3c(n1CC2)C(=O)N(C(C)(C)C)CCCCC3 [Compound 16n, 2-pyridin-3-yl-9-tert-butyl-3-methoxy-15-(1,3-thiazol-5-yl)-5,6,9,10,11,12,13,14-octahydro-8H-azonino[4′,3′:4,5]pyrrolo[2,1-a]isoquinolin-8-one]	16.2
CCS(=O)(=O)c1cc2c(cc1OC)CCn1c3c(c(-c4cncs4)c1-2)CCCCN(C(C)(C)C)C3=O [Compound 23g, 9-tert-butyl-14-(thiazol-5-yl)-2-ethylsulfonyl-3-methoxy-5,6,10,11,12,13-hexahydroazocino[4′,3′:4,5]pyrrolo[2,1-a]isoquinolin-8(9H)-one]	10.7
COc1cc2c(cc1OC(C)C)-c1c(-c3cccs3)c3c(n1CC2)C(=O)N(C(C)C)CCN(C(C)=O)C3 [Compound 14f, 12-acetyl-9-isopropyl-3-methoxy-2-isopropoxy-14-(2-thienyl)-5,6,10,11,12,13-hexahydro[1,4]diazocino[6′,7′:4,5]pyrrolo[2,1-a]isoquinolin-8(9H)-one]	35.5
COc1cc2c(cc1-c1cccnc1)-c1c(-c3cccs3)c3c(n1CC2)C(=O)N(C(C)C)CCN(C(C)=O)C3 [Compound 10p, 12-acetyl-9-isopropyl-3-methoxy-2-pyridin-3-yl-14-(2-thienyl)-5,6,10,11,12,13-hexahydro[1,4]diazocino[6′,7′:4,5]pyrrolo[2,1-a]isoquinolin-8(9H)-one]	5.25
CCS(=O)(=O)c1cc2c(cc1OC)CCn1c3c(c(-c4cccs4)c1-2)CCCCN(C(C)(C)C)C3=O [Compound 23f, 9-tert-butyl-14-(thien-2-yl)-2-ethylsulfonyl-3-methoxy-5,6,10,11,12,13-hexahydroazocino[4′,3′:4,5]pyrrolo[2,1-a]isoquinolin-8(9H)-one]	1.82
